According to patent US20240139211A1, “METHODS AND COMPOSITIONS FOR TREATING AMYOTROPHIC LATERAL SCLEROSIS” (Amylyx Pharmaceuticals, Inc., priority 2022, published 2024):
Like-named read-outs stand apart in the source and are kept apart here.

Legend:
OAT3 = target: T1, OAT3 (Homo sapiens, UniProt Q8TCC7); assay: Substrate of OAT3, uptake in HEK293 cells
T1 sequence (Q8TCC7 1-542): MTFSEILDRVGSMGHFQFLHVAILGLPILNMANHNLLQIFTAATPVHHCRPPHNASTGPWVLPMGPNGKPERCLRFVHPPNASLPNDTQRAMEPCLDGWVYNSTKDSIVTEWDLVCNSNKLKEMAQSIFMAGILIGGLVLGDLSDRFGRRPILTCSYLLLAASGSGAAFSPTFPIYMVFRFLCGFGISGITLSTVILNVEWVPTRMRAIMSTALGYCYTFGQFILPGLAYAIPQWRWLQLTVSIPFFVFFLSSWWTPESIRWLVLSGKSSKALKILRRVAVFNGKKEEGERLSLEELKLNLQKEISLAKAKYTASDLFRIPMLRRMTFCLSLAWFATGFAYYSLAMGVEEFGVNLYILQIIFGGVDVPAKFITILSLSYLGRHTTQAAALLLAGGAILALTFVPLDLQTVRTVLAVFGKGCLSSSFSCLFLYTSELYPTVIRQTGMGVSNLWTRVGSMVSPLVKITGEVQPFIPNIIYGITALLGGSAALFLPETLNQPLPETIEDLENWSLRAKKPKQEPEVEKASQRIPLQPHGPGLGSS
From the text: (§1) Vector-transfected HEK cells were used as a control.

OATP1B3 [1] = target: T2, OATP1B3 (Homo sapiens, UniProt Q9NPD5); assay: Substrate of OATP1B3, uptake in HEK293 cells
From the text: as §1

MATE2K = MATE2K (Homo sapiens, UniProt Q86VL8); assay: Substrate of MATE2-K, uptake in HEK293 cells
From the text: as §1

Caco-2 cells = details: for Permeability in Caco-2 cell assay: 1 and 10 μM (tauroursodeoxycholic acid: 10 μM)
BSEP = BSEP (Homo sapiens, UniProt O95342); assay: Substrate of BSEP; details: test article 1 and 10 μM
MATE1 = target: T3, MATE1 (Homo sapiens, UniProt Q96FL8); assay: Inhibitor of MATE1, probe substrate uptake; details: for Inhibition of MATE1 / Inhibitor of MATE1: two concentrations per test article; for potency estimated from few doses: read-out: Estimated IC50, MATE1
T3 sequence (Q96FL8 1-570): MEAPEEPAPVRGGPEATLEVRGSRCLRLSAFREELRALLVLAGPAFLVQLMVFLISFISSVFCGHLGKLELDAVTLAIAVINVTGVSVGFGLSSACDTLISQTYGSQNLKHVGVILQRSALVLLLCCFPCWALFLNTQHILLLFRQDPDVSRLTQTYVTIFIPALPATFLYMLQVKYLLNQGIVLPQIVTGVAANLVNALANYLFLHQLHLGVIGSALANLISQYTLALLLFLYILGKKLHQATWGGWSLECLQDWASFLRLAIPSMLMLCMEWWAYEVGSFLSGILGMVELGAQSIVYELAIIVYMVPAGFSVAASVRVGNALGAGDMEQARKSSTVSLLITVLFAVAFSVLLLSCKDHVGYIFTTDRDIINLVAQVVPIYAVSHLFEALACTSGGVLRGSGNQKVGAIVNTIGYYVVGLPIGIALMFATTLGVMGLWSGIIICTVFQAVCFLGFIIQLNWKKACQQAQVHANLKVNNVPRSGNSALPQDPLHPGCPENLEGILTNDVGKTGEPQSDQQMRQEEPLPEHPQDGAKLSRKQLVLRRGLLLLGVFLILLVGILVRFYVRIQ

OATP1B1 = OATP1B1 (Homo sapiens, UniProt Q9Y6L6); assay: Inhibitor of OATP1B1, probe substrate uptake; details: for potency estimated from few doses: read-out: Estimated IC50, OATP1B1; for Inhibition of OATP1B1 / Inhibitor of OATP1B1: two concentrations per test article
OATP1B3 [2] = target: T2, OATP1B3; assay: Inhibitor of OATP1B3, probe substrate uptake; details: for Inhibition of OATP1B3 / Inhibitor of OATP1B3: two concentrations per test article; for potency estimated from few doses: read-out: Estimated IC50, OATP1B3
human hepatocytes = assay: Stability of test articles in hepatocyte cultures; details: two concentrations
P-gp = P-gp (Homo sapiens, UniProt P08183); assay: Inhibitor of P-gp, 3H-digoxin efflux in Caco-2 cells; details: for potency estimated from few doses: read-out: Estimated IC50, P-gp
BCRP [3] = target: T4, BCRP (Homo sapiens, UniProt Q9UNQ0); assay: Substrate of BCRP (Caco-2 cells, selective inhibitor)
T4 sequence (Q9UNQ0 1-655): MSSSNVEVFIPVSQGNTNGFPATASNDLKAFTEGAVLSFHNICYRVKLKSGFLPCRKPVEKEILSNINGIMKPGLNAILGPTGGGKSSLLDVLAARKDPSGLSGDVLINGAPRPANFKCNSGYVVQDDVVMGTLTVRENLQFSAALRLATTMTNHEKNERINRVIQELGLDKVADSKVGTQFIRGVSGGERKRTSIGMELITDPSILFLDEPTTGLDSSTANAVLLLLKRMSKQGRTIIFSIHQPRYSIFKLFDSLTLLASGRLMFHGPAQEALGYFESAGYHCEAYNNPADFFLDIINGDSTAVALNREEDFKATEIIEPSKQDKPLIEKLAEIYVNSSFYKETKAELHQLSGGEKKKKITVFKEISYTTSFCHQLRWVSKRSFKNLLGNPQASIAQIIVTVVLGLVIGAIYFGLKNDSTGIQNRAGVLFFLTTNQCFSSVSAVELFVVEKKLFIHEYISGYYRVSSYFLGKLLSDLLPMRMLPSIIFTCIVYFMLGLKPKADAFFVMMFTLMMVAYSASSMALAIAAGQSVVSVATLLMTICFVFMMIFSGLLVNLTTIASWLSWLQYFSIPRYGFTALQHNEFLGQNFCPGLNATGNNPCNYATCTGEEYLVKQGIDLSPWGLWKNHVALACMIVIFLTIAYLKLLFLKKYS

BCRP [4] = target: T4, BCRP; assay: Inhibitor of BCRP, 3H-estrone-3-sulfate efflux in Caco-2 cells
[5] = estimated from two concentrations
[6] = Caco-2, two concentrations per test article
[7] = estimated from two concentrations, Caco-2 cells
[8] = two concentrations per test article, Caco-2 cells
[9] = test article 1 and 10 μM, Caco-2 cells
[10] = higher test concentration (UDCA: second assay)
[11] = lower test concentration (UDCA: second assay)
[12] = 1 and 10 μM, transport buffer alone

Sequence of P-gp (P08183 whole entry): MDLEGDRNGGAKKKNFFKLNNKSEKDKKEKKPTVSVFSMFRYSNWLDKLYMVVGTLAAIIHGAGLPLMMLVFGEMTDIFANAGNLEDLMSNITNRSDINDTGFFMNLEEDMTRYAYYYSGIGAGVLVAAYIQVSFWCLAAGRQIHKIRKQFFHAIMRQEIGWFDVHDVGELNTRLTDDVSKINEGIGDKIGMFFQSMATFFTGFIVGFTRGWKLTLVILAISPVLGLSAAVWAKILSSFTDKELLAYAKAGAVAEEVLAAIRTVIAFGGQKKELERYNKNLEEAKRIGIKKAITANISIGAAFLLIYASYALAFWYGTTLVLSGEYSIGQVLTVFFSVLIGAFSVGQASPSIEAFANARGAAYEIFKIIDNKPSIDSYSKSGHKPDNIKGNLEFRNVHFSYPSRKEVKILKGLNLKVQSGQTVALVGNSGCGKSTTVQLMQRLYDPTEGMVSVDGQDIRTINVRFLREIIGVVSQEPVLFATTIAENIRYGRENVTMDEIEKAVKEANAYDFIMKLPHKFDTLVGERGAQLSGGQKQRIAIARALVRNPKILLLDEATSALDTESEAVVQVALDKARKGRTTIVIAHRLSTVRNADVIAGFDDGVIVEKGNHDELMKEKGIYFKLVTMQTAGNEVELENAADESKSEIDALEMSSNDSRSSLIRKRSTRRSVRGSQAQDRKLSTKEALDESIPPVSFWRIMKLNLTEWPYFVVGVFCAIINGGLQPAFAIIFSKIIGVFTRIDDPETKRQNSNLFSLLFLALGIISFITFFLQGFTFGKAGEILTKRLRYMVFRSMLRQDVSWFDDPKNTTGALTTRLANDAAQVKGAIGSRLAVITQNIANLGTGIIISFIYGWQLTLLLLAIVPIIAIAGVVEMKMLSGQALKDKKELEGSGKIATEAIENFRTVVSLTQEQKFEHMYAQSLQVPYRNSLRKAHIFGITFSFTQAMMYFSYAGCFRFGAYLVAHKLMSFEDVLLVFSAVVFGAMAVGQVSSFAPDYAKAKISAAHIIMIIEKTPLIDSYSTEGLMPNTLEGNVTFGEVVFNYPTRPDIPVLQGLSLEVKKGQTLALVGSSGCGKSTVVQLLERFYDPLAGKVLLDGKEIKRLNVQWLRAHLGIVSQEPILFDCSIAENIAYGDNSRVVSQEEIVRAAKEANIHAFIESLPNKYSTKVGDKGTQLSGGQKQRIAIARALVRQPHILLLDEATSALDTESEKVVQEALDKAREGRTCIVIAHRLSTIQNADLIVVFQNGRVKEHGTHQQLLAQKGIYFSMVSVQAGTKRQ
Sequence of MATE2K (Q86VL8 1-566 isoform Q86VL8-3): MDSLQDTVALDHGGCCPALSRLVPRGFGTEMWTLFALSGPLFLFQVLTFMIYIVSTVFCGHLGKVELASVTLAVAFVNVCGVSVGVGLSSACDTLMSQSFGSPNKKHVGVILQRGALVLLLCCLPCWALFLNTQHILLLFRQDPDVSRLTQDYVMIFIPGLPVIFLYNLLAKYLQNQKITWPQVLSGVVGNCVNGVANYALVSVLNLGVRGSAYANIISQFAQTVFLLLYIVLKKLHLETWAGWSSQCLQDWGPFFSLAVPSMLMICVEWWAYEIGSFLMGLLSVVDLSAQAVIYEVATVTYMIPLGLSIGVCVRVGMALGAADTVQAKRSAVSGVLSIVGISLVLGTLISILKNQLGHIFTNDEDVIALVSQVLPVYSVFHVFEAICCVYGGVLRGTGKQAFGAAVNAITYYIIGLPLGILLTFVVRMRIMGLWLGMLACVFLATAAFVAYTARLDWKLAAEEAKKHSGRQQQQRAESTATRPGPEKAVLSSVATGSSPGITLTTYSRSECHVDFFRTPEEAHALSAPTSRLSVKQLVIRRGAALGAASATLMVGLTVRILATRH
Sequence of OATP1B1 (Q9Y6L6 whole entry): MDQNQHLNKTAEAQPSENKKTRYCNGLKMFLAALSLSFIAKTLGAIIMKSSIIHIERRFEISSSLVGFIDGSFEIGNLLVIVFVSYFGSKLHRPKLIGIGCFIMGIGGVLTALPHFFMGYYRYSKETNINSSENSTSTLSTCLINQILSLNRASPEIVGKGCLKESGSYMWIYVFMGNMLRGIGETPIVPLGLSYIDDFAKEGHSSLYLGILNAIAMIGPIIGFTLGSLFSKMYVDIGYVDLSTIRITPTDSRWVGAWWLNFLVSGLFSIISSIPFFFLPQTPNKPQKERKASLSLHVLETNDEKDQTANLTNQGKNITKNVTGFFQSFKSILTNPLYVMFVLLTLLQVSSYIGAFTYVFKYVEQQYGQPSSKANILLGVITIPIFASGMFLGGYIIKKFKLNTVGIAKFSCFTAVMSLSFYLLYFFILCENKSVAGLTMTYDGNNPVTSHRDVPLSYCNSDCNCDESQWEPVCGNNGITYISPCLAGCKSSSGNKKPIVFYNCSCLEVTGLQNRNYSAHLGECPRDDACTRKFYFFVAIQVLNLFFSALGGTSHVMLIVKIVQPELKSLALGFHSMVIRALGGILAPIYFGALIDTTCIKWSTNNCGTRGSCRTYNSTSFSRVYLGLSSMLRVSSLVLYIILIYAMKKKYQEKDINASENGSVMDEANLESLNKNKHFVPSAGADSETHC
T2 sequence (Q9NPD5 whole entry): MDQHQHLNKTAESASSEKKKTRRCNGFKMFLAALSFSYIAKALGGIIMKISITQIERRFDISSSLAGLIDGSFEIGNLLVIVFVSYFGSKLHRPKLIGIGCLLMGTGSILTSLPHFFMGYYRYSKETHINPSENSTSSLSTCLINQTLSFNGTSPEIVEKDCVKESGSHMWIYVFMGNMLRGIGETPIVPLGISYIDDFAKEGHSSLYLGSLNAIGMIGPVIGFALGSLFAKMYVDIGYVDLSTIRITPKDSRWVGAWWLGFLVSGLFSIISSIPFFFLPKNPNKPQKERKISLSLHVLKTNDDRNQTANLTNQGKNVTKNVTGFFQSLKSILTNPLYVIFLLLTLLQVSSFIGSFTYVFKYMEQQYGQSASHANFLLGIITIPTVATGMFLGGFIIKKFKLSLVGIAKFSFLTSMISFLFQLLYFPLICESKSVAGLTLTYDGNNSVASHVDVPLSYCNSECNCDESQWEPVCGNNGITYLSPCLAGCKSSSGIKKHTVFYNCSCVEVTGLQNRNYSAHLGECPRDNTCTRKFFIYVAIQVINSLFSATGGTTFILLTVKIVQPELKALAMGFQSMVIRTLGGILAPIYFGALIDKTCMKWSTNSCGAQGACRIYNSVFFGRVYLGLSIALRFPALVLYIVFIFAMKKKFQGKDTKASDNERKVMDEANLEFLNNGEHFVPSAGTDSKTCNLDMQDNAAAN
Sequence of BSEP (O95342 whole entry): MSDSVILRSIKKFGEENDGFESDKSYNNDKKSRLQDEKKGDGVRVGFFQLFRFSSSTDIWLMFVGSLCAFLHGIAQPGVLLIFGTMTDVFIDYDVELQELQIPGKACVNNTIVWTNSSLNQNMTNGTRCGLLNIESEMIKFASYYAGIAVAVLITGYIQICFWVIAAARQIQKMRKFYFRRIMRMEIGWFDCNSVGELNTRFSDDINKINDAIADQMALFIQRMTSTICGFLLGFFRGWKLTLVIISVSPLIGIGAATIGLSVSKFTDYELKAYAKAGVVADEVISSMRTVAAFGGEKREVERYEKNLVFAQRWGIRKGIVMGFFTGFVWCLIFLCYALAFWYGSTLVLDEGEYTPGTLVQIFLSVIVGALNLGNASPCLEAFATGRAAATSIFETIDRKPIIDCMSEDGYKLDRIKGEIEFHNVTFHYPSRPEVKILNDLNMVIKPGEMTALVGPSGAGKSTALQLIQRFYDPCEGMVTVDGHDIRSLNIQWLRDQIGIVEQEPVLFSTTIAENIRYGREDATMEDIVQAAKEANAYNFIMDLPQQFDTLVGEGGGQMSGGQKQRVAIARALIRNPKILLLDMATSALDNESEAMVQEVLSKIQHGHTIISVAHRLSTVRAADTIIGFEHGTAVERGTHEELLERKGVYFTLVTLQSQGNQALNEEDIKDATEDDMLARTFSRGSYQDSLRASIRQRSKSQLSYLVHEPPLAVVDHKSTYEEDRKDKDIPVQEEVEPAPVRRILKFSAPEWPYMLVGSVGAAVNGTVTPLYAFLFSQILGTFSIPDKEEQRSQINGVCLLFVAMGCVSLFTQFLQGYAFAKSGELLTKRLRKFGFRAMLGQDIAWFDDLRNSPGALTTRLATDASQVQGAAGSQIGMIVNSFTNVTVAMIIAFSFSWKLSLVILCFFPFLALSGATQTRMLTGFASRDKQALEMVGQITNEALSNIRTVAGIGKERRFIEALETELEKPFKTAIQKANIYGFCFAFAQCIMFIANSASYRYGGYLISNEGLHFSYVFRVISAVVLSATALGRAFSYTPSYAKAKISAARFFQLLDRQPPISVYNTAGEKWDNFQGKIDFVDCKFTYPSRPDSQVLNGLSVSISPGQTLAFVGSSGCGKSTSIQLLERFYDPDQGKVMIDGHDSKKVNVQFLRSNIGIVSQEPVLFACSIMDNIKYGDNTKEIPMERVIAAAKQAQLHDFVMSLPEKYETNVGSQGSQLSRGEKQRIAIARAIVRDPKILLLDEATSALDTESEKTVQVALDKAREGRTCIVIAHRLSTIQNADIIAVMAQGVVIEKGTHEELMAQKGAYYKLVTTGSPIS

## O=C(O)Cc1ccccc1 [Phenylacetic acid, phenylacetic acid]
OAT3; 1 and 10 μM
  Substrate of OAT3: not a substrate
OAT3; test article 1 and 10 μM
  Substrate of OAT3: No
OATP1B3 [1]; 1 μM
  Uptake in OATP1B3 cells: 5.27 pmol/minute/mg protein
OATP1B3 [1]; 10 μM
  Net OATP1B3 uptake remaining with inhibitor: 79.0%
  Uptake in OATP1B3 cells: 19.3 pmol/min/mg
OATP1B3 [1]; 1 and 10 μM
  Substrate of OATP1B3: identified as a substrate
OATP1B3 [1]; test article 1 and 10 μM
  Substrate of OATP1B3: Yes
MATE2K; 10 μM
  Net MATE2-K uptake remaining with inhibitor: 64.1%
  Uptake in MATE2-K cells: 84.2 pmol/min/mg
MATE2K; 1 and 10 μM
  Substrate of MATE2-K: identified as a substrate
MATE2K; test article 1 and 10 μM
  Substrate of MATE2-K: Yes
Caco-2 cells
  Permeability in Caco-2 cell assay: high permeability
BSEP
  Substrate of BSEP: No
MATE1
  Inhibition of MATE1: did not inhibit
  Inhibitor of MATE1: No^a
OATP1B1; [5]
  potency estimated from few doses: > 7500 µM
OATP1B1
  Inhibition of OATP1B1: inhibited
  Inhibitor of OATP1B1: Yes
OATP1B3 [2]
  Inhibition of OATP1B3: did not inhibit
  Inhibitor of OATP1B3: No
Human hepatocytes; 4 hours
  % of time zero remaining in hepatocyte cultures: ≤ 75.9%
Human hepatocytes; 24 hours
  % of time zero remaining in hepatocyte cultures: ≤ 2.31%
P-gp; [6]
  Inhibitor of P-gp: weak inhibitor
P-gp; higher test concentration
  Remaining P-gp activity, % of the control: 75.6%
P-gp; lower test concentration
  Remaining P-gp activity, % of the control: 85.9%
P-gp; [7]
  potency estimated from few doses: > 7500 µM
P-gp; [8]
  Inhibitor of P-gp: Yes
BCRP [3]; Caco-2, 1 and 10 μM
  Substrate of BCRP: not a substrate
BCRP [3]; [9]
  Substrate of BCRP: No
BCRP [4]; [6]
  Inhibitor of BCRP: not an inhibitor
BCRP [4]; [10]
  Remaining BCRP activity, % of the control: 199%
BCRP [4]; [11]
  Remaining BCRP activity, % of the control: 162%
BCRP [4]; [8]
  Inhibitor of BCRP: No

## ursodeoxycholic acid
OAT3; 1 and 10 μM
  Substrate of OAT3: not a substrate
OAT3; test article 1 and 10 μM
  Substrate of OAT3: No
OATP1B3 [1]; 1 and 10 μM
  Substrate of OATP1B3: not a substrate
OATP1B3 [1]; test article 1 and 10 μM
  Substrate of OATP1B3: No
MATE2K; 1 and 10 μM
  Substrate of MATE2-K: not a substrate
MATE2K; test article 1 and 10 μM
  Substrate of MATE2-K: No
Caco-2 cells; 1 and 10 μM
  Apparent permeability in both directions: > 18 ×10⁻⁶ cm/s
Caco-2 cells
  Permeability in Caco-2 cell assay: high in both directions
Caco-2 cells; [12]
  Papp apical to basolateral: ≥ 18.9 ×10⁻⁶ cm/s
  Papp basolateral to apical: ≥ 22.8 ×10⁻⁶ cm/s
MATE1; [5]
  potency estimated from few doses: < 500 µM
MATE1; estimated from two doses
  potency estimated from few doses: < 500 µM
MATE1
  Inhibition of MATE1: inhibited
  Inhibitor of MATE1: Yes
OATP1B1; 50 μM
  Uptake activity remaining, OATP1B1: 545.1%
OATP1B1; 500 μM
  Uptake activity remaining, OATP1B1: no uptake activity remaining
OATP1B1; [5]
  potency estimated from few doses: < 50 µM
OATP1B1; estimated from two doses
  potency estimated from few doses: < 50 µM
OATP1B1
  Inhibition of OATP1B1: inhibited
  Inhibitor of OATP1B1: Yes
OATP1B3 [2]; 50 μM
  Uptake activity remaining, OATP1B3: 545.1%
OATP1B3 [2]; 500 μM
  Uptake activity remaining, OATP1B3: no uptake activity remaining
OATP1B3 [2]; [5]
  potency estimated from few doses: < 50 µM
OATP1B3 [2]; estimated from two doses
  potency estimated from few doses: < 50 µM
OATP1B3 [2]
  Inhibition of OATP1B3: inhibited
  Inhibitor of OATP1B3: Yes
Human hepatocytes; 1 hour
  % of time zero remaining in hepatocyte cultures: ≤ 93.1%
Human hepatocytes; 4 hours
  % of time zero remaining in hepatocyte cultures: ≤ 61.0%
Human hepatocytes; 24 hours
  % of time zero remaining in hepatocyte cultures: ≤ 2.35%
P-gp; [6]
  Inhibitor of P-gp: identified as an inhibitor
P-gp; higher test concentration
  Remaining P-gp activity, % of the control: 13.0%
P-gp; lower test concentration
  Remaining P-gp activity, % of the control: 348%
P-gp; Caco-2, estimated from two doses
  potency estimated from few doses: < 500 µM
P-gp; [7]
  potency estimated from few doses: < 500 µM
P-gp; [8]
  Inhibitor of P-gp: Yes^a
BCRP [3]; Caco-2, 1 and 10 μM
  Substrate of BCRP: not a substrate
BCRP [3]; [9]
  Substrate of BCRP: No
BCRP [4]; [6]
  Inhibitor of BCRP: not an inhibitor
BCRP [4]; first assay, 500 μM
  BCRP activity, % of the control: 130%
BCRP [4]; [10]
  Remaining BCRP activity, % of the control: 155%
BCRP [4]; [11]
  Remaining BCRP activity, % of the control: 228%
BCRP [4]; [8]
  Inhibitor of BCRP: No
